PMC6906261 (The journal of pain : official journal of the American Pain …, 2019)
Where a name gives a salt, the structure may show the parent alone.

Key:
[1] = tested on: CD-1 mice; settings: mouse, in vivo
[2] = tested on: CD-1 mice; settings: mouse, in vivo; remark: listed apart in the source
[3] = tested on: TNFα mRNA; settings: mouse, in vivo
[4] = tested on: CD-1 mice; settings: mouse, in vivo; remark: listed apart in the source
[5] = tested on: CD-1 mice; settings: mouse, in vivo; remark: listed apart in the source
[6] = tested on: CD-1 mice; settings: mouse, in vivo; remark: listed apart in the source
[7] = tested on: CD-1 mice; settings: general literature value; cited from earlier work

## Oc1ccc2c3c1O[C@H]1c4[nH]c5ccccc5c4C[C@@]4(O)[C@@H](C2)N(CC2CC2)CC[C@]314 [Naltrindole]
[1]
  Effect of antagonist on SRI-22141 tail flick anti-nociception, naltrindole ip: no impact
[2]
  Effect of antagonist on SRI-22141 anti-nociception in CIPN: strongly reduced
[3]
  Effect of antagonist on TNFα mRNA decrease caused by SRI-22141: reversed the decrease in TNFα caused by SRI-22141 back to baseline

## CN1CC[C@]23c4c5ccc(O)c4O[C@H]2[C@@H](O)C=C[C@H]3[C@H]1C5 [Morphine, Morphine sulfate pentahydrate]
[4]
  Anti-nociceptive efficacy on day 3, HIV Neuropathy: zero efficacy
  Tolerance – Days to Zero Efficacy, HIV Neuropathy, 10 mg/kg: 3.0 (2.7-3.6) days
[2]
  Tolerance – Days to Zero Efficacy, CIPN, 10 mg/kg: 2.2 (1.9-3.3) days
[3]
  TNFα mRNA level in spinal cord in CIPN: did not alter
[5]
  Rotarod motor impairment (latency to fall): no impairment
[6]
  Withdrawal GI output, CIPN mice: robust jumping and GI output response
  Withdrawal GI output, pain-naïve mice: robust jumping and GI output behavior
  Withdrawal jumping behavior, CIPN mice: robust jumping and GI output response
  Withdrawal jumping behavior, pain-naïve mice: robust jumping and GI output behavior
[7]
  Tail flick A50 from the literature: around 3.2 mg/kg

## C=CCN1CC[C@]23c4c5ccc(O)c4O[C@H]2C(=O)CC[C@@]3(O)[C@H]1C5 [Naloxone]
[1]
  Decrease of tail flick AUC vs vehicle group, naloxone it: 4.6%
  Effect of antagonist on SRI-22141 tail flick anti-nociception, naloxone icv: strongly reduced
  Effect of antagonist on SRI-22141 tail flick anti-nociception, naloxone ip: completely prevented
